Data reported in PubChem BioAssay (NCI).
Values joined by “and” are separate entries in the source; they are usually repeats but may differ in a detail not shown here. Identical values can stand only once.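 Where inhibition never reached the appropriate level, the endpoint shown equals the highest concentration tested. Otherwise, values were interpolated linearly from a five-concentration, 48-hour dose response in 96-well plates. At the GI50, growth is halved. At the TGI there is no net growth.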

How the values were obtained:
Assay in all cases: NCI-60 cell line screen, 48 h
[1] = tested on: NCI/ADR-RES ovarian
[2] = tested on: SK-MEL-2 melanoma
[3] = tested on: TK-10 renal
[4] = tested on: KM12 colon
[5] = tested on: UACC-257 melanoma
[6] = tested on: SN12C renal
[7] = tested on: NCI-H522 lung
[8] = tested on: OVCAR-4 ovarian
[9] = tested on: HCT-116 colon
[10] = tested on: 786-0 renal

Row | Compound | GI50 [1] | TGI [1] | GI50 [2] | TGI [2] | GI50 [3] | TGI [3] | GI50 [4] | TGI [4] | GI50 [5] | TGI [5] | GI50 [6] | TGI [6] | GI50 [7] | TGI [7] | GI50 [8] | TGI [8] | GI50 [9] | TGI [9] | GI50 [10] | TGI [10]
1 | Cc1ccc(-n2nnc3c(sc4ccccc43)c2=O)cc1 | 9.35 µM | > 100 µM | 99000 nM | > 100 µM | 7470 nM | 50 µM | 3810 nM | > 100 µM | > 100000 nM | > 100 µM | > 100000 nM | > 100 µM | 63500 nM | > 100 µM | 2020 nM | 4.82 µM | 3100 nM | > 100 µM | 3400 nM | 12.1 µM
2 | O=C(NC1CCNCC1)c1[nH]ncc1NC(=O)c1c(Cl)cccc1Cl | > 100 µM | > 100 µM | 216 nM and 303 nM | 0.519 µM and 1.14 µM | 1490 nM and 1440 nM | 6.93 µM and > 10 µM | 297 nM and 305 nM | 1.66 µM and > 10 µM | 1420 nM and 1920 nM | 4.56 µM and > 7.47 µM | 1240 nM and 387 nM | > 50.3 µM | 387 nM and 280 nM | 1.94 µM and 2.17 µM | 402 nM and 383 nM | 14 µM and > 10 µM | 315 nM and 285 nM | > 100 µM | 1000 nM and 543 nM | > 100 µM
3 | CC[C@@]1(OC(=O)C(N)CCC(=O)O)C(=O)OCc2c1cc1n(c2=O)Cc2cc3ccccc3nc2-1 (stereo not given in full) |  | 0.297 µM |  | 3.44 µM |  | > 100 µM |  | 6.1 µM |  | 1.63 µM |  | 1.34 µM |  | 2.03 µM |  | > 20.8 µM |  | > 100 µM |  | 0.159 µM
4 | NC(Cn1ccc(=O)c(O)c1)C(=O)O (stereo not given) |  | > 100 µM |  | > 100 µM |  | > 100 µM |  | > 100 µM |  | > 100 µM |  | > 100 µM |  | > 100 µM |  | > 100 µM |  | > 100 µM |  | > 100 µM
5 | CS(=O)/C(C#N)=C\C=C\c1cccc(Cl)c1 (stereo not given) | 2.66 µM | 37.7 µM | 4440 nM | 19.1 µM | 5590 nM | 17.5 µM | 1420 nM | 4 µM | 2410 nM | 12.2 µM | 2740 nM | 12.2 µM | 1960 nM | 5.65 µM | 3630 nM | 21.1 µM | 1120 nM | 4.73 µM | 3210 nM | 12.2 µM
6 | Cc1cc(NS(=O)(=O)c2ccc(NC(=O)COc3ccc(-c4cc5ccccc5[nH]4)cc3)cc2)no1 | 2.64 µM | 9.37 µM | 1860 nM | 3.76 µM | 2040 nM | 5.45 µM | 1510 nM | 3.24 µM | 2070 nM | 6.27 µM | 2240 nM | 10.4 µM | 1790 nM | 4.09 µM | 1530 nM | 3.98 µM | 1840 nM | 5.01 µM | 1930 nM | 3.65 µM
7 | CC(=O)Nc1c(I)c(C(=O)O)c(I)c(N(C)C(C)=O)c1I | > 100 µM | > 100 µM | > 100000 nM | > 100 µM | > 100000 nM | > 100 µM | > 100000 nM | > 100 µM | > 100000 nM | > 100 µM | > 100000 nM | > 100 µM | > 100000 nM | > 100 µM | > 100000 nM | > 100 µM | > 100000 nM | > 100 µM | > 100000 nM | > 100 µM
8 | O=S(=O)(CC(O)C(Cl)(Cl)Cl)NNc1ccccc1 (stereo not given) |  | > 100 µM |  | > 100 µM |  | > 100 µM |  | > 100 µM |  | > 100 µM |  | > 100 µM |  | > 100 µM |  | > 100 µM |  | > 100 µM |  | > 100 µM
9 | Cc1cc(N2CCN(C)CC2)nc(N(CCNc2ccnc3cc(Cl)ccc23)Cc2ccco2)n1 | 3.1 µM | 14.8 µM | 2260 nM | 5.58 µM | 2800 nM | 11.4 µM | 3480 nM | 13.6 µM | 2070 nM | 4.25 µM | 8880 nM | 21 µM | 3510 nM | 13.3 µM | 4910 nM | 18.2 µM | 2600 nM | 10.4 µM | 1930 nM | 4.83 µM
10 | Cc1ccc(-c2c3c(N)nc(-c4ccncc4)nc3nc3c2c(C)nn3-c2ccccc2)cc1 | 7.5 µM | > 37.5 µM | 13700 nM | > 37.5 µM | 9500 nM | 25.6 µM | 31400 nM | > 37.5 µM | 13300 nM | > 37.5 µM | 2580 nM | > 37.5 µM | > 37500 nM | > 37.5 µM | 7440 nM | 33.3 µM | 2950 nM | 11.1 µM | 12400 nM | > 37.5 µM
11 | O=C(CCCCCNC1=CC(=O)c2ccccc2C1=O)NCCC[Te]c1ccccc1 | 0.425 µM | 4.62 µM | 2790 nM | 6.3 µM | 2050 nM | 6.04 µM | 351 nM | 1.3 µM | 2400 nM | 6.33 µM | 331 nM | 1.56 µM | 1750 nM | 81.5 µM | 2210 nM | 7.59 µM | 295 nM | 0.98 µM | 2000 nM | 4.17 µM
12 | CCCCCCCCn1ccc2cc(NC(=O)Cn3cc(CN4CCC(C)CC4)nn3)ccc21 | 1.92 µM | 3.99 µM | 1850 nM | 3.53 µM | 1700 nM | 3.21 µM | 1810 nM | 3.39 µM | 1700 nM | 3.35 µM | 1680 nM | 3.16 µM | 1730 nM | 3.48 µM | 2070 nM | 4.85 µM | 1570 nM | 2.93 µM | 1480 nM | 2.81 µM
13 | COc1ccc(-c2nnc(Nc3nc(O)c(C4=c5cc(OC(F)(F)F)ccc5=NC4=O)s3)o2)cc1 | 20.2 µM | 75.4 µM | 20300 nM | 39.3 µM | 20500 nM | 58.2 µM | 3750 nM | 19.6 µM | 13200 nM | 35.9 µM | 16500 nM | 40.5 µM | 32400 nM | > 100 µM | 46300 nM | > 100 µM | 12500 nM | 25.4 µM | 11200 nM | 24.3 µM
